Reference: publication PMC7433010, “Exploration of multi‐target effects of 3‐benzoyl‐5‐hydroxychromen‐2‐one in Alzheimer’s disease cell and mouse models” (Aging Cell, 2020)

Test: Cytotoxicity by survived cell number in 293 cells expressing ∆K280 TauRD‐DsRed
Assay type: cell-based
Settings: human; for IC50 at 3 days: 293 cells expressing ∆K280 TauRD‐DsRed for 3 days; for viability at 3 days, 1 µM: % of cells without treatment
From the text: In ∆K280 TauRD‐DsRed 293 cells, a proaggregant (ΔK280) Tau repeat domain (TauRD) containing residues 244–372 of the full‐length 4R2N Tau441 was fused in‐frame with DsRed fluorophore. Compared to the wild‐type TauRD, the poorly folded ΔK280 TauRD formed aggregates, which adversely affected the folding of fused DsRed and thus decreased DsRed fluorescence, as also evidenced by increase in thioflavin S fluorescence emission (Chang et al., 2017). Thioflavin S is a reporter dye for studies of Tau toxicity and pharmacologic prevention in cell model of tauopathy (Pickhardt et al., 2017). It binds to amyloid fibrils but not monomers and gives a distinct increase in fluorescence emission. Inhibition of Tau aggregation may improve DsRed misfolding, leading to increased fluorescence in ΔK280 TauRD‐DsRed‐expressing cells. Utilizing the established Tet‐on ΔK280 TauRD‐DsRed 293 cells (Chang et al., 2016), licochalcone A and LM compounds were tested for effects of reducing Tau misfolding and anti‐oxidation (Figure S2a). Congo red was included for comparison. […] In the following experiments, DsRed fluorescence was measured in wells containing at least 80% viable cells. […] Due to the features of their effectiveness and less cytotoxicity, licochalcone A (1 μM) and LM‐031 (1 μM) were chosen as the candidate compounds for the following experiments. […] Representative DsRed and thioflavin S fluorescent images of ∆K280 TauRD‐DsRed‐expressing cells untreated or treated with congo red (10 µM), licochalcone A (1 µM), or LM‐031 (1 µM) are shown in Figure S2d.
DsRed fluorescence of proaggregant ∆K280 TauRD-DsRed 293 cells was evaluated to reflect Tau aggregation. On day 1, cells were seeded on a 96-well plate in a density of 0.8 × 10^4 cells/well. […] On the fifth day, the cells were stained with Hoechst 33342 (0.1 µg/ml; Sigma-Aldrich) for 30 min to identify total cell number; DsRed fluorescence images (543 nm excitation and 593 nm emission) were automatically captured by using the ImageXpressMICRO high-content imaging system (Molecular Devices, Sunnyvale, CA, USA) and analyzed using MetaXpress image acquisition and analysis software (Molecular Devices). In addition, the cells were fixed with paraformaldehyde (4% in PBS) for 15 minutes, permeabilized with methanol (80%) for 6 minutes at -20°C, incubated with thioflavin S (0.02%; Sigma-Aldrich) and 4’,6-diamidino-2-phenylindole (DAPI) (0.1 μg/ml; Sigma-Aldrich) for 5 minutes, and washed in ethanol (50%). Thioflavin S images ([…]) were captured and analyzed as described. In general, 2 × 10^4 cells in each biological replicate were analyzed.
Figure S2. ΔK280 TauRD-DsRed 293 cells. (a) Experimental flow chart. Cells were plated on day 1. On day 2, the cells were treated with congo red or test compounds for 8 h; addition of doxycycline (Dox; 1 µg/ml) followed. DsRed/thioﬂavin S fluorescence, ROS, and caspase 3 activity were assessed on day 5. (b) Cytotoxicity of the test compounds against 293 cells expressing ∆K280 TauRD-DsRed for 3 days using the survived cell number (n = 3). IC50 values are listed. (c) Dose response curves of LM-031 based on DsRed fluorescence measurement. (d) Fluorescent images of ΔK280 TauRD-DsRed 293 cells untreated or treated with congo red (10 µM), licochalcone A (1 µM), or LM-031 (1 µM). Nuclei were counterstained with Hoechst 33342 (blue), and merged DsRed and Hoechst 33342 signals were shown. In addition, tau aggregation was monitored by staining with thioﬂavin S (green).

[1] = Tet-on ∆K280 TauRD-DsRed 293 cells (expression induced), ∆K280 TauRD‐DsRed‐expressing 293 cells

Structure (SMILES)	IC50 at 3 days [µM]	viability at 3 days, 1 µM [1] [%]	viability at 3 days, 10 µM (Tet-on ∆K280 TauRD-DsRed 293 cells (expression induced), 10 μM, ∆K280 TauRD‐DsRed‐expressing 293 cells) [%]
COc1ccc(C(=O)/C=C/c2cc(Br)ccc2O)cc1 [LM‐004]	5	–	–
O=C(c1ccccc1)c1cc2c(O)cccc2oc1=O [LM‐031, 3‐benzoyl‐5‐hydroxychromen‐2‐one]	56.6	94 to 97	91
Nc1c(/N=N/c2ccc(-c3ccc(/N=N/c4cc(S(=O)(=O)O)c5ccccc5c4N)cc3)cc2)cc(S(=O)(=O)O)c2ccccc12 [congo red, reference compound]	36.9	–	–
C=CC(C)(C)c1cc(/C=C/C(=O)c2ccc(O)cc2)c(OC)cc1O [licochalcone A, reference compound]	5.9	94 to 97	–
